From patent US12336537B2, “Fungicidal compositions” (SYNGENTA CROP PROTECTION AG, priority 2020, dated 2025) come the findings set out here.

Assay [1] concerns Puccinia recondita f. sp. tritici. The note with it: in Triticum aestivum, foliar, read-out: control of Puccinia recondita f, sp. tritici.
Description: Example A10: Puccinia recondita f. sp. tritici/Wheat/Leaf Disc Preventative (Brown Rust)
Wheat leaf segments cv. Kanzler are placed on agar in multiwell plates (24-well format) and sprayed with the formulated test compound diluted in water. The leaf disks are inoculated with a spore suspension of the fungus 1 day after application. The inoculated leaf segments are incubated at 19° C. and 75% rh under a light regime of 12 h light/12 h darkness in a climate cabinet and the activity of a compound is assessed as percent disease control compared to untreated when an appropriate level of disease damage appears in untreated check leaf segments (7-9 days after application).
Assay [2] deals with Glomerella lagenarium (Colletotrichum lagenarium). Nature of the assay: Example A3: Glomerella lagenarium (Colletotrichum lagenarium) / liquid culture (anthracnose). Particulars: Colletotrichum orbiculare, 3-4 days after application, compared to untreated control. The format is cell-based.
Assay [3] deals with Mycosphaerella arachidis (Cercospora arachidicola). Nature of the assay: Example A7: Mycosphaerella arachidis (Cercospora arachidicola) / liquid culture (early leaf spot). The class given is cell-based. The note with it: 4-5 days after application, compared to untreated control.

Some results are limits rather than exact numbers.

A word on the inhibition of growth: it is the drop in the measured response relative to a control, in per cent. Read a high inhibition of growth as a strong effect.

`Cc1sc(N(C#N)c2cc(F)nc(F)c2)nc1C(=O)NC1CCC12CCC2` (stereo not drawn) [X.09, 2-[cyano-(2,6-difluoro-4-pyridyl)amino]-5-methyl-N-spiro[3.3]heptan-3-yl-thiazole-4-carboxamide]: the pest or weed control at 200 ppm in assay [1] was no less than 80%.
Regarding `Cc1sc(N(C#N)c2cc(F)cc(F)c2)nc1C(=O)NC1CCC1(C)C` (stereo not drawn) [X.03, 2-(N-cyano-3,5-difluoro-anilino)-N-(2,2-dimethylcyclobutyl)-5-methyl-thiazole-4-carboxamide], the pest or weed control at 200 ppm in assay [1] was no less than 80%.
For `CCCCNC(=O)c1nc(N(C#N)c2cc(F)nc(F)c2)sc1C` [X.24, N-butyl-2-[cyano-(2,6-difluoro-4-pyridyl)amino]-5-methyl-thiazole-4-carboxamide], in assay [1], the pest or weed control at 200 ppm is no less than 80%.
The same measure, in the same setting: then `Cc1sc(N(C#N)c2cc(F)nc(F)c2)nc1C(=O)NC(C)c1ccccc1` (stereo not drawn) [X.16, 2-[cyano-(2,6-difluoro-4-pyridyl)amino]-5-methyl-N-(1-phenylethyl)thiazole-4-carboxamide], with no less than 80%; and `Cc1sc(N(C#N)c2cc(F)nc(F)c2)nc1C(=O)NCc1ccccc1` [X.23, N-benzyl-2-[cyano-(2,6-difluoro-4-pyridyl)amino]-5-methyl-thiazole-4-carboxamide], with no less than 80%.
Take `CCCCCNC(=O)c1nc(N(C#N)c2cc(F)nc(F)c2)sc1C` [X.20, 2-[cyano-(2,6-difluoro-4-pyridyl)amino]-5-methyl-N-pentyl-thiazole-4-carboxamide]: the pest or weed control at 200 ppm in assay [1] was no less than 80%. The inhibition of growth at 20 ppm in assay [2] was no less than 80%.
In the case of `Cc1sc(N(C#N)c2cc(F)nc(F)c2)nc1C(=O)NCC(C)(C)C` [X.18, 2-[cyano-(2,6-difluoro-4-pyridyl)amino]-N-(2,2-dimethylpropyl)-5-methyl-thiazole-4-carboxamide], the pest or weed control at 200 ppm in assay [1] is no less than 80%.
Consider `Cc1sc(N(C#N)c2cc(F)nc(F)c2)nc1C(=O)NC1CCC1` [X.02, 2-[cyano-(2,6-difluoro-4-pyridyl)amino]-N-cyclobutyl-5-methyl-thiazole-4-carboxamide], for which the pest or weed control at 200 ppm in assay [1] was no less than 80%.
As to `CCCCCCNC(=O)c1nc(N(C#N)c2cc(F)nc(F)c2)sc1C` [X.14, 2-[cyano-(2,6-difluoro-4-pyridyl)amino]-N-hexyl-5-methyl-thiazole-4-carboxamide], the pest or weed control at 200 ppm in assay [1] was no less than 80%.
For the compound `Cc1sc(N(C#N)c2cc(F)nc(F)c2)nc1C(=O)NC1CCC12CCCC2` (stereo not drawn) [X.07, 2-[cyano-(2,6-difluoro-4-pyridyl)amino]-5-methyl-N-spiro[3.4]octan-3-yl-thiazole-4-carboxamide], the pest or weed control at 200 ppm in assay [1] was no less than 80%.
For `Cc1sc(N(C#N)c2cc(F)nc(F)c2)nc1C(=O)NCC(C)C` [X.15, 2-[cyano-(2,6-difluoro-4-pyridyl)amino]-N-isobutyl-5-methyl-thiazole-4-carboxamide], the inhibition of growth at 20 ppm in assay [3] was no less than 80%. The pest or weed control at 200 ppm in assay [1] was no less than 80%.
On to `Cc1sc(N(C#N)c2cc(F)nc(F)c2)nc1C(=O)NC1(C)CCCC1` [X.12, 2-[cyano-(2,6-difluoro-4-pyridyl)amino]-5-methyl-N-(1-methylcyclopentyl)thiazole-4-carboxamide], for which the pest or weed control at 200 ppm in assay [1] is no less than 80%.
For `Cc1sc(N(C#N)c2cc(F)nc(F)c2)nc1C(=O)NC1CCC1(C)C` (stereo not drawn) [X.05, 2-[cyano-(2,6-difluoro-4-pyridyl)amino]-N-(2,2-dimethylcyclobutyl)-5-methyl-thiazole-4-carboxamide], in assay [1], the pest or weed control at 200 ppm was no less than 80%.
`Cc1sc(N(C#N)c2cc(F)nc(F)c2)nc1C(=O)NC1CCC12Cc1ccccc1C2` (stereo not drawn) [X.08, 2-[cyano-(2,6-difluoro-4-pyridyl)amino]-5-methyl-N-spiro[cyclobutane-2,2′-indane]-1-yl-thiazole-4-carboxamide]: the pest or weed control at 200 ppm in assay [1] is no less than 80%.
In the case of `Cc1sc(N(C#N)c2cc(F)cc(F)c2)nc1C(=O)NC1(C)CCCC1` [X.11, 2-(N-cyano-3,5-difluoro-anilino)-5-methyl-N-(1-methylcyclopentyl)thiazole-4-carboxamide], the pest or weed control at 200 ppm in assay [1] was no less than 80%.
On to `Cc1sc(N(C#N)c2cc(F)nc(F)c2)nc1C(=O)NCC1(CC2CC2)CC1` [X.10, 2-[cyano-(2,6-difluoro-4-pyridyl)amino]-N-[[1-(cyclopropylmethyl)cyclopropyl]methyl]-5-methyl-thiazole-4-carboxamide], for which, in assay [1], the pest or weed control at 200 ppm is no less than 80%.
